Like-named read-outs stand apart in the source and are kept apart here.
Experiments:
Experiment in all cases: DiscoverX KINOMEscan kinase profiling (468 assays)
Assay type in all cases: binding
human kinome [1] = target: human kinome (Homo sapiens, UniProt P19784); conditions: CSNK2A2; 100 nM; read-out: Percent Control
Procedure, shortened: (§1)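 VIP152 was run in DMSO, alongside a DMSO control. Readout was qPCR of DNA-tagged kinase still bound to bead-immobilized biotinylated kinase ligands after compound competition.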

human kinome [2] = target: human kinome (Homo sapiens, UniProt P36888, D835V); conditions: FLT3(D835V); 100 nM; read-out: Percent Control
Procedure, shortened: as §1

human kinome [3] = target: human kinome (Homo sapiens, UniProt Q13237); conditions: read-out: Percent Control
Sequence of human kinome (Homo sapiens, UniProt Q13237) (Q13237 whole entry): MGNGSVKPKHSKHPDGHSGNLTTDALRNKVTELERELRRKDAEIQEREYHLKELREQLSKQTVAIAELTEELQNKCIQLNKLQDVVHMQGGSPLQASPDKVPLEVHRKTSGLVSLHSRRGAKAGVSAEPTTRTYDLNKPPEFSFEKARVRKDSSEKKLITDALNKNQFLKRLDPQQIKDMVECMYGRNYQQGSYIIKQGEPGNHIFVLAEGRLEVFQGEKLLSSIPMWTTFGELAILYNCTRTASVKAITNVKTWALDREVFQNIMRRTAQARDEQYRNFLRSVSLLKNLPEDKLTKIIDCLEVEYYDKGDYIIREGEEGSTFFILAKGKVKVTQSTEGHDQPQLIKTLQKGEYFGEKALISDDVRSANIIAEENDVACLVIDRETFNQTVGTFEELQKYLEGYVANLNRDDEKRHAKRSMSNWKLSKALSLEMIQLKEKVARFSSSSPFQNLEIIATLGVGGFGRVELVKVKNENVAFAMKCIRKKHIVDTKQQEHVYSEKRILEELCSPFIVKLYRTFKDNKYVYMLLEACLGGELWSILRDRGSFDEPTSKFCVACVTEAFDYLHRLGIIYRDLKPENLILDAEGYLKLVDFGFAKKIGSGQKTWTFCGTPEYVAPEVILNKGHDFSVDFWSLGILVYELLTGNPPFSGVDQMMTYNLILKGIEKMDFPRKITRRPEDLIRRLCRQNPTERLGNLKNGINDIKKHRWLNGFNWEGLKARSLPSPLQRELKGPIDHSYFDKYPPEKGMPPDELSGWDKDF
Procedure, shortened: as §1

human kinome [4] = target: human kinome (Homo sapiens, UniProt Q2M2I8); conditions: AAK1; 100 nM; read-out: Percent Control
Procedure, shortened: as §1

human kinome [5] = target: human kinome (Homo sapiens, UniProt P15056, V600E); conditions: BRAF(V600E); 100 nM; read-out: Percent Control
Procedure, shortened: as §1

human kinome [6] = target: human kinome (Homo sapiens, UniProt Q92772); conditions: CDKL2; 100 nM; read-out: Percent Control
Procedure, shortened: as §1

human kinome [7] = target: human kinome (Homo sapiens, UniProt P43405); conditions: kinase SYK (Entrez SYK); compound concentration 1000 nM; read-out: Percent Control
Procedure, shortened: as §1

human kinome [8] = target: human kinome (Homo sapiens, UniProt O15075); conditions: DCAMKL1 (Entrez DCLK1); 100 nM; read-out: Percent Control
Procedure, shortened: as §1

human kinome [9] = target: human kinome (Homo sapiens, UniProt Q92918); conditions: HPK1 (Entrez MAP4K1); 100 nM; read-out: Percent Control
Procedure, shortened: as §1

human kinome [10] = target: human kinome (Homo sapiens, UniProt O94921); conditions: read-out: Percent Control
Procedure, shortened: as §1

human kinome [11] = target: human kinome (Homo sapiens, UniProt O15530); conditions: read-out: Percent Control
Sequence of human kinome (Homo sapiens, UniProt O15530) (O15530 whole entry): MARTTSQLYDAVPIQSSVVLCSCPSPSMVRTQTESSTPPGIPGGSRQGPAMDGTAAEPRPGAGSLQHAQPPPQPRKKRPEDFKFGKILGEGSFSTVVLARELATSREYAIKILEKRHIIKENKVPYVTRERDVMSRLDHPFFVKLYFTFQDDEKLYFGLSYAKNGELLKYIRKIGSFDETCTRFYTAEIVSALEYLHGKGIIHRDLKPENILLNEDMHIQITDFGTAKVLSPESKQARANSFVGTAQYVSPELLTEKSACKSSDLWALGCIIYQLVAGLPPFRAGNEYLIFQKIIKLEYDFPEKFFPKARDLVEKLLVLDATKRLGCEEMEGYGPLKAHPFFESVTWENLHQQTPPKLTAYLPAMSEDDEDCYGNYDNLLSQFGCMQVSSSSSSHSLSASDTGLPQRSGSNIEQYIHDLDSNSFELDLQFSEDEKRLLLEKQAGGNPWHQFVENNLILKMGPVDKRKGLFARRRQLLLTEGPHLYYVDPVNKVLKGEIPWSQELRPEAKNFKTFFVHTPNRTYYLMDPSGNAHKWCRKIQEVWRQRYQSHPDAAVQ
Procedure, shortened: as §1

human kinome [12] = target: human kinome (Homo sapiens, UniProt P06239); conditions: LCK; 100 nM; read-out: Percent Control
Procedure, shortened: as §1

human kinome [13] = target: human kinome (Homo sapiens, UniProt Q14680); conditions: MELK; 100 nM; read-out: Percent Control
Procedure, shortened: as §1

human kinome [14] = target: human kinome (Homo sapiens, UniProt Q99683); conditions: ASK1 (Entrez MAP3K5); 100 nM; read-out: Percent Control
Procedure, shortened: as §1

human kinome [15] = target: human kinome (Homo sapiens, UniProt P09619); conditions: read-out: Percent Control
Sequence of human kinome (Homo sapiens, UniProt P09619) (P09619 33-1106): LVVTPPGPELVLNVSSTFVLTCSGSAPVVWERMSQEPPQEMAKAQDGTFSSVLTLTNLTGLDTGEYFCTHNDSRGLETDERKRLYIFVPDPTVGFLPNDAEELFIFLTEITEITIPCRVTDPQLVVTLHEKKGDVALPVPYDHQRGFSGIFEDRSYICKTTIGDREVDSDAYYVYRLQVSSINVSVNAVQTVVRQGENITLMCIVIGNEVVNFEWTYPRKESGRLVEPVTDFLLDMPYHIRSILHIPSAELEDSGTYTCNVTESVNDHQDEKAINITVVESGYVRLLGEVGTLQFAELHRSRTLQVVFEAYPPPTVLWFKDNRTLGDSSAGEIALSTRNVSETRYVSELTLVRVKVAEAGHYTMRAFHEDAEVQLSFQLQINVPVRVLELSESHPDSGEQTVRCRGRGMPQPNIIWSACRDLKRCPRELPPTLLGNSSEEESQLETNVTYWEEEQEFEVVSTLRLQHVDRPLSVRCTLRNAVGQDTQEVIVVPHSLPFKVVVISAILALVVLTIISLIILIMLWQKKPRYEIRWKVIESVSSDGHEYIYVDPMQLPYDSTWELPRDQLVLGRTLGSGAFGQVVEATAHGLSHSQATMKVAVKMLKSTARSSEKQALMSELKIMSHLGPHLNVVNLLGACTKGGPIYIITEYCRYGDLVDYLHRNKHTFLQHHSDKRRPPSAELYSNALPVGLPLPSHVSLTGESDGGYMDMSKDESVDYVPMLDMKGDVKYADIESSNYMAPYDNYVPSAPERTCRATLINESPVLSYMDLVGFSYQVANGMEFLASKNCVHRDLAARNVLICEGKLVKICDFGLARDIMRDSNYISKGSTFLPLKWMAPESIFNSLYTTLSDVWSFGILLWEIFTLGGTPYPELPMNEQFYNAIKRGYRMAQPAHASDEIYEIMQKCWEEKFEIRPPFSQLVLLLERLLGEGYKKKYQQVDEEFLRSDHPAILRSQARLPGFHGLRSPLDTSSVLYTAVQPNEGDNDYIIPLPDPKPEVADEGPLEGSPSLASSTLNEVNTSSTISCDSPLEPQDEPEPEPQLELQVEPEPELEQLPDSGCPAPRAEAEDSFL
Procedure, shortened: as §1

human kinome [16] = target: human kinome (Homo sapiens, UniProt Q9Y2K2); conditions: read-out: Percent Control
Sequence of human kinome (Homo sapiens, UniProt Q9Y2K2) (Q9Y2K2 whole entry): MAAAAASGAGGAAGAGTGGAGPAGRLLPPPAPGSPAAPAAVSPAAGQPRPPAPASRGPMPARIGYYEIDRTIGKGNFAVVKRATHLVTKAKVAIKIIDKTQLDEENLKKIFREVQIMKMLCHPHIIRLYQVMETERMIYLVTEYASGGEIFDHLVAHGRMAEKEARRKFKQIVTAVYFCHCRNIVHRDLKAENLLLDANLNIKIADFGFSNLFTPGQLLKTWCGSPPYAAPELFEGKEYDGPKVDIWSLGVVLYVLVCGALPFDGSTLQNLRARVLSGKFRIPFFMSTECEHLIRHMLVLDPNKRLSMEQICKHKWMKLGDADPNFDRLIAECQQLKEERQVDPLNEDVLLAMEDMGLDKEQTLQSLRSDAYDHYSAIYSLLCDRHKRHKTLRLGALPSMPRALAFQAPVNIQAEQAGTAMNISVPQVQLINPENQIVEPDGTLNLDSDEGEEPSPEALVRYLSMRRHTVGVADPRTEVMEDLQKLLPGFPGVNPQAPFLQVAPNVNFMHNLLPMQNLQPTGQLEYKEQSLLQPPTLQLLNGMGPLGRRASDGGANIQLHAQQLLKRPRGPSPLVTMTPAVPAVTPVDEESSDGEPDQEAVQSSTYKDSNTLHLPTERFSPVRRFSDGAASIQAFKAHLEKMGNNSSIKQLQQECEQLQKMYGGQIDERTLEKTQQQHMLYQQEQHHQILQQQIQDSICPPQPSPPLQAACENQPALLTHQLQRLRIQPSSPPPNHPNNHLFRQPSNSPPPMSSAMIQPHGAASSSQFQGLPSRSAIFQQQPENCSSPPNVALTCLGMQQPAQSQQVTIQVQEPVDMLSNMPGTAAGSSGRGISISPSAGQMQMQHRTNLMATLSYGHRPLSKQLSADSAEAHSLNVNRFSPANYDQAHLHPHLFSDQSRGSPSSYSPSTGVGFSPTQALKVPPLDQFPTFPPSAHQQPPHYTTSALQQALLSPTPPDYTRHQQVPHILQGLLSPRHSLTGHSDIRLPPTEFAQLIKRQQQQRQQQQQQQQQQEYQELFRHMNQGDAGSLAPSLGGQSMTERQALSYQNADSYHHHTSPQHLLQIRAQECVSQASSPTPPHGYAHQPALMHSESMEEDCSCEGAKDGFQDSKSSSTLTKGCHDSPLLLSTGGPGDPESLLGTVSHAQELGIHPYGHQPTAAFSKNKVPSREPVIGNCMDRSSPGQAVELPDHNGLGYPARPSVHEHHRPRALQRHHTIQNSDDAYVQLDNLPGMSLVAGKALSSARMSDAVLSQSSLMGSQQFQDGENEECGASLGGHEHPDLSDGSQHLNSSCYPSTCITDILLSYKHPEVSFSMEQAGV
Procedure, shortened: as §1

human kinome [17] = target: human kinome (Homo sapiens, UniProt Q7KZI7); conditions: MARK2; 100 nM; read-out: Percent Control
Procedure, shortened: as §1

human kinome [18] = target: human kinome (Homo sapiens, UniProt P42336, C420R); conditions: read-out: Percent Control
Sequence of human kinome (Homo sapiens, UniProt P42336, C420R) (P42336 whole entry C420R): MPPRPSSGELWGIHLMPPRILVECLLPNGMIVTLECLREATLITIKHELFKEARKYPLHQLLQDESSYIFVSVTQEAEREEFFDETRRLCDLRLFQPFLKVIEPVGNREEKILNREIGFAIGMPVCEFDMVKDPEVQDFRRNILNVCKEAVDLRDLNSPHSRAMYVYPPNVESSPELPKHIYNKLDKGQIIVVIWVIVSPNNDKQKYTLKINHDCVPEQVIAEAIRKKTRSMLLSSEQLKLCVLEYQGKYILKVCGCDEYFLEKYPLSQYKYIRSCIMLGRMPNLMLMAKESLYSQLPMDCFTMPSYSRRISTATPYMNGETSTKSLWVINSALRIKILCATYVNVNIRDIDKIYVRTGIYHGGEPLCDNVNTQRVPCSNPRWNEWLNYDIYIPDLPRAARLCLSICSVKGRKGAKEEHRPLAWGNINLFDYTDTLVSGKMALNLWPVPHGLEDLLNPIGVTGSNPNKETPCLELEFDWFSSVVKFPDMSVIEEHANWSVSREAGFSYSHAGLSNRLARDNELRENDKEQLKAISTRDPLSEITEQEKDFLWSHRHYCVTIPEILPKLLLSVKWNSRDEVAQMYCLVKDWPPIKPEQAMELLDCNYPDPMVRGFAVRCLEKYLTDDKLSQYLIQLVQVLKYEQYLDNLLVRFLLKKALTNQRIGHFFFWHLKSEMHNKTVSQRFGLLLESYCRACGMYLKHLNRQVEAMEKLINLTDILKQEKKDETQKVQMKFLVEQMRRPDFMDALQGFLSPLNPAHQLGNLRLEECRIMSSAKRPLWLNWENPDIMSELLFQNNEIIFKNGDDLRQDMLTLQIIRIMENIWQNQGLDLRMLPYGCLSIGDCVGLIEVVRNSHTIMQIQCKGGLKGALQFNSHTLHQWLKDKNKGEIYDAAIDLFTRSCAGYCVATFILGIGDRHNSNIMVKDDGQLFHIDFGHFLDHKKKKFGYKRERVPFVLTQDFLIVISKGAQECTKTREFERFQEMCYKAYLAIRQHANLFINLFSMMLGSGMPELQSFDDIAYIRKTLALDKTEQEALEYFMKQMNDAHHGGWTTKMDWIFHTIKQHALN
Procedure, shortened: as §1

human kinome [19] = target: human kinome (Homo sapiens, UniProt Q06187); conditions: BTK; 100 nM; read-out: Percent Control
Procedure, shortened: as §1

human kinome [20] = target: human kinome (Homo sapiens, UniProt Q13705); conditions: ACVR2B; 100 nM; read-out: Percent Control
Procedure, shortened: as §1

human kinome [21] = target: human kinome (Homo sapiens, UniProt Q8IWQ3); conditions: BRSK2; 100 nM; read-out: Percent Control
Procedure, shortened: as §1

human kinome [22] = target: human kinome (Homo sapiens, UniProt O75385); conditions: kinase ULK1 (Entrez ULK1); compound concentration 1000 nM; read-out: Percent Control
Procedure, shortened: as §1

human kinome [23] = target: human kinome (Homo sapiens, UniProt P29317); conditions: EPHA2; 100 nM; read-out: Percent Control
Procedure, shortened: as §1

human kinome [24] = target: human kinome (Homo sapiens, UniProt P48730); conditions: CSNK1D; 100 nM; read-out: Percent Control
Procedure, shortened: as §1

human kinome [25] = target: human kinome (Homo sapiens, UniProt Q8N4C8); conditions: MINK (Entrez MINK1); 100 nM; read-out: Percent Control
Procedure, shortened: as §1

human kinome [26] = target: human kinome (Homo sapiens, UniProt P49137); conditions: MAPKAPK2; 100 nM; read-out: Percent Control
Procedure, shortened: as §1

human kinome [27] = target: human kinome (Homo sapiens, UniProt P51812); conditions: compound concentration 1000 nM, read-out: Percent Control
Procedure, shortened: as §1

human kinome [28] = target: human kinome (Homo sapiens, UniProt Q02750); conditions: MEK1 (Entrez MAP2K1); 100 nM; read-out: Percent Control
Procedure, shortened: as §1

human kinome [29] = target: human kinome (Homo sapiens, UniProt Q96Q40); conditions: read-out: Percent Control
Procedure, shortened: as §1

human kinome [30] = target: human kinome (Homo sapiens, UniProt P08069); conditions: IGF1R; 100 nM; read-out: Percent Control
Procedure, shortened: as §1

In the case of COc1cc(F)ccc1-c1cc(Nc2cc(CS(C)(=N)=O)ccn2)ncc1F (centres unmarked) [VIP152], the remaining binding at 0.1 µM (human kinome [1]) is reported as 100%, the remaining binding at 0.1 µM (human kinome [2]) is reported as 100% and the remaining binding at 0.1 µM (human kinome [3]; PRKG2, 100 nM) is reported as 100%. The remaining binding at 1 µM (human kinome [3]; kinase PRKG2 (Entrez PRKG2), compound concentration 1000 nM) was 100%, the remaining binding at 0.1 µM (human kinome [4]) was 100% and the remaining binding at 0.1 µM (human kinome [5]) was 100%. It also gave a remaining binding at 0.1 µM (human kinome [6]) of 100%, a remaining binding at 1 µM (human kinome [7]) of 38% and a remaining binding at 0.1 µM (human kinome [8]) of 91%. The remaining binding at 0.1 µM (human kinome [9]) was 90%, the remaining binding at 0.1 µM (human kinome [10]; PFTK1 (Entrez CDK14), 100 nM) was 100% and the remaining binding at 1 µM (human kinome [10]; kinase PFTK1 (Entrez CDK14), compound concentration 1000 nM) was 84%. It also gave a remaining binding at 0.1 µM (human kinome [11]; PDPK1, 100 nM) of 100%, a remaining binding at 1 µM (human kinome [11]; kinase PDPK1 (Entrez PDPK1), compound concentration 1000 nM) of 100% and a remaining binding at 0.1 µM (human kinome [12]) of 100%. For the same molecule, the remaining binding at 0.1 µM (human kinome [13]) was 91%, the remaining binding at 0.1 µM (human kinome [14]) was 100% and the remaining binding at 0.1 µM (human kinome [15]; PDGFRB, 100 nM) was 100%. The remaining binding at 1 µM (human kinome [15]; kinase PDGFRB (Entrez PDGFRB), compound concentration 1000 nM) was 71%, the remaining binding at 0.1 µM (human kinome [16]; QSK (Entrez KIAA0999), 100 nM) was 100% and the remaining binding at 1 µM (human kinome [16]; kinase QSK (Entrez KIAA0999), compound concentration 1000 nM) was 98%. For the same molecule, the remaining binding at 0.1 µM (human kinome [17]) was 100%, the remaining binding at 0.1 µM (human kinome [18]; PIK3CA(C420R), 100 nM) was 98% and the remaining binding at 1 µM (human kinome [18]; kinase PIK3CA(C420R) (Entrez PIK3CA), compound concentration 1000 nM) was 92%. The remaining binding at 0.1 µM (human kinome [19]) was 100%, the remaining binding at 0.1 µM (human kinome [20]) was 89% and the remaining binding at 0.1 µM (human kinome [21]) was 99%. For the same molecule, the remaining binding at 1 µM (human kinome [22]) was 90%, the remaining binding at 0.1 µM (human kinome [23]) was 92% and the remaining binding at 0.1 µM (human kinome [24]) was 100%. The remaining binding at 0.1 µM (human kinome [25]) was 100%, the remaining binding at 0.1 µM (human kinome [26]) was 100% and the remaining binding at 1 µM (human kinome [27]; kinase RSK2(Kin.Dom.1-N-terminal) (Entrez RPS6KA3)) was 60%. It also gave a remaining binding at 1 µM (human kinome [27]; kinase RSK2(Kin.Dom.2-C-terminal) (Entrez RPS6KA3)) of 80%, a remaining binding at 0.1 µM (human kinome [28]) of 100% and a remaining binding at 0.1 µM (human kinome [29]; PFTAIRE2 (Entrez CDK15), 100 nM) of 100%. For the same molecule, the remaining binding at 1 µM (human kinome [29]; kinase PFTAIRE2 (Entrez CDK15), compound concentration 1000 nM) was 70% and the remaining binding at 0.1 µM (human kinome [30]) was 79%.
